This is an account of results in patent EP4545549B1, “INSECT NEUROPEPTIDES” (Solasta Bio Limited, priority 2023, dated 2025).

One data set relates to Myzus persicae. The conditions noted are these: unformulated SB-P-46; leaf dip; mortality assessed at 72, 96 and 120 hours; compared to vehicle and Spirotetramat; Figures 6 and 7.
A further data set concerns Aphis fabae. The settings on record: unformulated SB-P-46; for reduction in naturally infested Aphis fabae numbers as a percentage of untreated control crop: vining peas. The source says: (§1) The data has been processed in the ARM Field Trials software under license.
For data set [1], the system named is Amrasca biguttula (leaf hopper). The settings on record: unformulated SB-P-46; 3 and 7 days after application; Figure 16.
From the text: as §1

The next data set concerns Bumblebee. Nature of the data set: Bee oral toxicity test (adapted from OECD Test No. 247: Bumblebee, Acute Oral Toxicity Test). The data set is classed as in vivo. The conditions noted are these: after 96 hours of application; compared with sucrose or vehicle and Imidacloprid; Figure 10. On the procedure:
Bee oral testing protocol was carried out adapted from OECD Test No. 247: Bumblebee, Acute Oral Toxicity Test. The toxicity of SB-P-46 was compared with a negative control of sucrose or vehicle, and with a current commercial insecticide Imidacloprid.

The test system of a further data set is Aphis gossypii. The conditions noted are these: Greece; cotton; unformulated SB-P-46; counted 3 days following application; Figure 14.
From the text: as §1
AgriScience conducted a field trial in Greece, investigating the efficacy of insecticidal peptides on aphids on cotton crop.

Read-outs that look alike come from different tables or passages of the source. Residues, ends and D or L forms follow the SMILES beside them.

Method for Myzus persicae: The assay was carried out based on IRAC susceptibility test method 019 (https://irac-online.org/methods/aphids-adultnymphs/).
Dip a 2.5 cm leaf disc into 3 ml of treatment solution allowing the treatment to coat the leaf. Leave the disc to dry for 1 hour and place onto the set agar. Place insects (aphids) onto each of the leaf discs. Each unit is sealed with a close-fitting, ventilated lid. Place the agar dishes in a small plastic tray lined with moist tissue paper and ensure the water trays in the bottom of the incubator are filled with clean water and place within the incubator. An assessment of mortality is made at 72, 96 and 120 hours. Leaf dip assays were performed with unformulated SB-P-46, and compared to a negative control vehicle and a current commercial insecticide Spirotetramat.

`CC(C)C[C@H](NC(=O)[C@H](CCCNC(=N)N)NC(=O)[C@@H]1CCCN1C(=O)[C@H](CO)NC(=O)[C@H](Cc1ccccc1)NC(=O)[C@@H]1CCCN1C(=O)[C@@H]1CCCN1C(=O)[C@H](CO)NC(=O)[C@H](Cc1ccc(O)cc1)NC(=O)[C@@H]1CCCN1C(=O)[C@@H]1CCCN1C(=O)[C@@H](N)CO)C(N)=O` [SB-P-46, [Hy]-SPPYSPPFSPRL-[NH2]] (H-SPPYSPPFSPRL-NH2): the “activity against Myzus persicae” value in the data set with Myzus persicae is on record as “good activity”. Also, the “reduction in naturally infested Aphis fabae numbers as a percentage of untreated control crop” value in the data set with Aphis fabae (Wigtoft location, counted 4 days following application, Figure 12) is “similarly efficacious activity”; with Aphis fabae (field trial 1, Chatteris location, counted 14 days following application, Figure 11), “performed comparably to the conventional insecticides Stealth and Teppeki (sprayed as Treatment 1), followed by Aphox (sprayed as Treatment 2)”; in the data set on Aphis fabae (third trial (slot trial), Holbeach location, counted 7 days following application, low aphid infestation, Figure 13), “performed as efficaciously as the conventional pesticides tested”. Moreover, the “activity against naturally infested Aphis fabae in field trials” value in the data set on Aphis fabae (4 and 8 days after application, Figure 15) is “acted comparably to Hallmark Zeon insecticide”. The “activity against naturally infested Amrasca biguttula (leaf hopper) in field trials” value in data set [1] is “acted comparably to Flipper insecticide”. Moreover, the “bee oral toxicity (% survival)” value in the data set on Bumblebee is given as “far lower toxicity to key pollinator species such as bees compared to broad spectrum chemical insecticides such as Imidacloprid”. Also, the “reduction in naturally infested Aphis gossypii numbers as a percentage of untreated control crop” value in the data set with Aphis gossypii is recorded as “performing with close efficacy to the conventional pesticide equivalent tested”.
